The subject of one experiment is OCI-AML3 cells. Kind of experiment: Proliferation assay (spheroid growth, 8 days), OCI-AML3. It is filed as cell-based, human. Particulars: Homo sapiens, OCI-AML-3, […], OCI-AML3, 8 days. In outline: (§1)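 8-day spheroid growth in ultra-low attachment plates; seeding 200 cells (MOLM14, OCI-AML3) or 300 (KO-52); DMSO 0.3%. Day-8 imaging, confluence vs DMSO (0%) and top reference dose (baseline); IC50 by variable-slope fit.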

The next experiment concerns MOLM14 cells. Kind of experiment: Proliferation assay (spheroid growth, 8 days), MOLM14.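 Further: spheroid size read as confluence by live-cell imaging, compounds added at a range of concentrations with 0.3% DMSO, DMSO-treated wells = 0%, highest reference dose = low control.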 It is filed as cell-based, human. Conditions: Homo sapiens, MOLM-14, […], MOLM14, 8 days; read-out: spheroid assay_OneTime MOLM14 IC50.
Another experiment concerns MEIS1 mRNA. Kind of experiment: MEIS1 mRNA expression assay (Quantigene Singleplex) in MOLM14 cells.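 Further: MEIS1 transcript levels read by probe hybridization and normalized to RPL28 mRNA, with IC50 fitted to fold changes across a rising compound concentration series.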 Type of experiment: cell-based, human. Particulars: Homo sapiens, MOLM-14, 48 h, 48 hours incubation.
The test system of the next experiment is KO-52 cells. Put plainly: Proliferation assay (spheroid growth, 8 days), KO-52 control cell line. It is filed as cell-based, human. Particulars: Homo sapiens, […], read-out: spheroid assay_OneTime KO-52 IC50. In outline:
as §1

Experiment [1] addresses menin/MLL (terbium chelate-labeled menin, FITC-MBM1 peptide) (Homo sapiens (Human), UniProt O00255). Put plainly: Menin/MLL homogenous time-resolved fluorescence (HTRF) assay.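 Further: IC50 from percent inhibition of HTRF signal, normalized between wells without competitor and wells with a saturating competitor that displaces FITC-MBM1 from His-tagged menin.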 Type of experiment: binding. Conditions: HTRF-30 min incubation IC50, 30 min incubation.

Each structure is given as a SMILES string. Structures can show the parent of a compound that is named as a salt.

We go through 16 compounds from patent US12473295B2, “Substituted straight chain spiro derivatives” (Janssen Pharmaceutica NV, priority 2019, dated 2025).

Sequence of menin/MLL (terbium chelate-labeled menin, FITC-MBM1 peptide) (O00255 other isoform, or with tags, fused parts or gaps): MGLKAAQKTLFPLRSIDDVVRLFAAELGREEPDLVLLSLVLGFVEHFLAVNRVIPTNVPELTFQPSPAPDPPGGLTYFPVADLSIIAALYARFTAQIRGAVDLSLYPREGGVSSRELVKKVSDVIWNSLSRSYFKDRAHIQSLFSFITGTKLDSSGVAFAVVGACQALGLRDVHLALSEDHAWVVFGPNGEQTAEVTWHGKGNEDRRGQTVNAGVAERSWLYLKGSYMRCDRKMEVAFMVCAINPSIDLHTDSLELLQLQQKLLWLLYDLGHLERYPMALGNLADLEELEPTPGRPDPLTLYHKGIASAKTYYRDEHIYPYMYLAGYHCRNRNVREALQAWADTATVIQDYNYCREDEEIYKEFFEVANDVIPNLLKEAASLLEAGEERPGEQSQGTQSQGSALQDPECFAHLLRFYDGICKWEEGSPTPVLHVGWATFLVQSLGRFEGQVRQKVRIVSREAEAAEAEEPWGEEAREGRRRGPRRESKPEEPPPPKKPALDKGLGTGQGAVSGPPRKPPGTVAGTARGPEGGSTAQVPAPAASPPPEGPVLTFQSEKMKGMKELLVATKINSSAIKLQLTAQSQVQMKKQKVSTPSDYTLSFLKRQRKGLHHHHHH

Consider `CCN(C(=O)c1cc(F)ccc1Oc1nncnc1N1CCC2(C1)CN([C@H](CCCNC(COC)COC)C(C)C)C2)C(C)C` [Compound 159, (R)-2-((5-(2-(6-((1,3-dimethoxypropan-2-yl)amino)-2-methylhexan-3-yl)-2,6-diazaspiro[3.4]octan-6-yl)-1,2,4-triazin-6-yl)oxy)-N-ethyl-5-fluoro-N-isopropylbenzamide fumarate], for which the IC50 (as a rule, the concentration at which inhibition is half-maximal) in the experiment with OCI-AML3 cells was 12 nM; in the experiment with MOLM14 cells it was 10 nM; in the experiment on MEIS1 mRNA, approximately 17 nM; with KO-52 cells, 6300 nM; in experiment [1], 0.1 nM.

For the compound `CCN(C(=O)c1cc(F)ccc1Oc1nncnc1N1CCC2(C1)CN([C@H](CCCN[C@H](CO)COC)C(C)C)C2)C(C)C` [Compound 162, N-ethyl-5-fluoro-2-((5-(2-((R)-6-(((R)-1-hydroxy-3-methoxypropan-2-yl)amino)-2-methylhexan-3-yl)-2,6-diazaspiro[3.4]octan-6-yl)-1,2,4-triazin-6-yl)oxy)-N-isopropylbenzamide], the half-maximal inhibitory concentration (IC50) is 26 nM with OCI-AML3 cells; 13 nM in the experiment with MOLM14 cells; approximately 19 nM in the experiment with MEIS1 mRNA; more than 15000 nM with KO-52 cells; 0.096 nM in experiment [1].

As for `CCN(C(=O)c1cc(F)ccc1Oc1nncnc1N1CCC2(C1)CN([C@H](CCCN[C@@H](CO)COC)C(C)C)C2)C(C)C` [Compound 163, N-ethyl-5-fluoro-2-((5-(2-((R)-6-(((S)-1-hydroxy-3-methoxypropan-2-yl)amino)-2-methylhexan-3-yl)-2,6-diazaspiro[3.4]octan-6-yl)-1,2,4-triazin-6-yl)oxy)-N-isopropylbenzamide], the IC50 is 120 nM with OCI-AML3 cells; 18 nM in the experiment on MOLM14 cells; 20 nM with MEIS1 mRNA; more than 15000 nM in the experiment on KO-52 cells; 0.089 nM in experiment [1].

With `CCN(C(=O)c1cc(F)ccc1Oc1nncnc1N1CCC2(C1)CN([C@H](CCCN(C)[C@H](CO)COC)C(C)C)C2)C(C)C` [Compound 165, N-ethyl-5-fluoro-2-(5-(2-((R)-6-((R)-1-hydroxy-3-methoxypropan-2-yl)(methyl)amino)-2-methylhexan-3-yl)-2,6-diazaspiro[3.4]octan-6-yl)-1,2,4-triazin-6-yl)oxy)-N-isopropylbenzamide fumarate], the IC50 is 99 nM in the experiment with OCI-AML3 cells; 30 nM in the experiment on MOLM14 cells; 23 nM with MEIS1 mRNA; more than 15000 nM with KO-52 cells; 0.06 nM in experiment [1].

Consider `CCN(C(=O)c1cc(F)ccc1Oc1nncnc1N1CCC2(C1)CN([C@H](CCCN(C)[C@@H](CO)COC)C(C)C)C2)C(C)C` [Compound 167, N-ethyl-5-fluoro-2-((5-(2-((R)-6-(((S)-1-hydroxy-3-methoxypropan-2-yl)(methyl)amino)-2-methylhexan-3-yl)-2,6-diazaspiro[3.4]octan-6-yl)-1,2,4-triazin-6-yl)oxy)-N-isopropylbenzamide fumarate], for which the 50% inhibitory concentration (IC50) is 65 nM with OCI-AML3 cells; 17 nM with MOLM14 cells; 18 nM in the experiment with MEIS1 mRNA; more than 15000 nM with KO-52 cells; 0.16 nM in experiment [1].

On to `CCN(C(=O)c1cc(F)ccc1Oc1nncnc1N1CCC2(C1)CN([C@H](CCCNCC(CO)OC)C(C)C)C2)C(C)C` (stereo partly drawn) [Compound 168, N-ethyl-5-fluoro-2-((5-(2-((3R)-6-((3-hydroxy-2-methoxypropyl)amino)-2-methylhexan-3-yl)-2,6-diazaspiro[3.4]octan-6-yl)-1,2,4-triazin-6-yl)oxy)-N-isopropylbenzamide], for which the IC50 was 370 nM in the experiment with OCI-AML3 cells; 49 nM in the experiment on MOLM14 cells; 74 nM in the experiment on MEIS1 mRNA; more than 15000 nM in the experiment on KO-52 cells; 0.1 nM in experiment [1].

Consider `CCN(C(=O)c1cc(F)ccc1Oc1nncnc1N1CCC2(C1)CN([C@H](CCCN(C)CC(CO)OC)C(C)C)C2)C(C)C` (stereo partly drawn) [Compound 170, N-ethyl-5-fluoro-2-((5-(2-((3R)-6-((3-hydroxy-2-methoxypropyl)(methyl)amino)-2-methylhexan-3-yl)-2,6-diazaspiro[3.4]octan-6-yl)-1,2,4-triazin-6-yl)oxy)-N-isopropylbenzamide fumarate], for which the IC50 in the experiment with OCI-AML3 cells is 41 nM; in the experiment with MOLM14 cells, 25 nM; in the experiment on MEIS1 mRNA it was 37 nM; in the experiment with KO-52 cells, more than 15000 nM; in experiment [1], 0.1 nM.

Turning to `CCN(C(=O)c1cc(F)ccc1Oc1nncnc1N1CCC2(C1)CN([C@H](CCCNCC(COC)OC)C(C)C)C2)C(C)C` (stereo partly drawn) [Compound 172, 2-((5-(2-((3R)-6-((2,3-dimethoxypropyl)amino)-2-methylhexan-3-yl)-2,6-diazaspiro[3.4]octan-6-yl)-1,2,4-triazin-6-yl)oxy)-N-ethyl-5-fluoro-N-isopropylbenzamide fumarate], the IC50 in the experiment on OCI-AML3 cells was determined as 38 nM; in the experiment with MOLM14 cells it was 23 nM; in the experiment with MEIS1 mRNA, 13 nM; with KO-52 cells it was 13400 nM; in experiment [1] it was 0.13 nM.

Take `CCN(C(=O)c1cc(F)ccc1Oc1nncnc1N1CCC2(C1)CN([C@H](CCCN(C)C(C)CC(=O)N(C)C)C(C)C)C2)C(C)C` (some centres unmarked) [Compound 179, fumarate]: the concentration for half-maximal inhibition (IC50) was 59 nM with OCI-AML3 cells; 33 nM with MOLM14 cells; 27 nM in the experiment on MEIS1 mRNA; more than 15000 nM with KO-52 cells; 0.13 nM in experiment [1].

On to `CCN(C(=O)c1cc(F)ccc1Oc1nncnc1N1CCC2(C1)CN([C@H](CCCN(C)CC(C)C(=O)N(C)C)C(C)C)C2)C(C)C` (stereo partly drawn) [Compound 181, 2-((5-(2-((3R)-6-((3-(dimethylamino)-2-methyl-3-oxopropyl)(methyl)amino)-2-methylhexan-3-yl)-2,6-diazaspiro[3.4]octan-6-yl)-1,2,4-triazin-6-yl)oxy)-N-ethyl-5-fluoro-N-isopropylbenzamide fumarate], for which the IC50 in the experiment on OCI-AML3 cells stood at 44 nM; in the experiment on MOLM14 cells, 23 nM; with MEIS1 mRNA, 17 nM; with KO-52 cells, 14000 nM; in experiment [1], 0.079 nM.

`CCN(C(=O)c1cc(F)ccc1Oc1nncnc1N1CCC2(C1)CN([C@H](CCCN(C)[C@H](C)CC(=O)NC)C(C)C)C2)C(C)C` [Compound 191, N-ethyl-5-fluoro-N-isopropyl-2-((5-(2-((R)-2-methyl-6-(methyl((R)-4-(methylamino)-4-oxobutan-2-yl)amino)hexan-3-yl)-2,6-diazaspiro[3.4]octan-6-yl)-1,2,4-triazin-6-yl)oxy)benzamide fumarate]: the IC50 is 560 nM with OCI-AML3 cells; 280 nM with MOLM14 cells; 220 nM with MEIS1 mRNA; more than 15000 nM in the experiment on KO-52 cells; 0.28 nM in experiment [1].

Regarding `CCN(C(=O)c1cc(F)ccc1Oc1nncnc1N1CCC2(C1)CN([C@H](CCCN(C)[C@@H](C)CC(=O)NC)C(C)C)C2)C(C)C` [Compound 193, N-ethyl-5-fluoro-N-isopropyl-2-((5-(2-((R)-2-methyl-6-(methyl((S)-4-(methylamino)-4-oxobutan-2-yl)amino)hexan-3-yl)-2,6-diazaspiro[3.4]octan-6-yl)-1,2,4-triazin-6-yl)oxy)benzamide fumarate], the 50% inhibitory concentration (IC50) was 290 nM with OCI-AML3 cells; 170 nM in the experiment with MOLM14 cells; 120 nM with MEIS1 mRNA; more than 15000 nM in the experiment with KO-52 cells; approximately 0.26 nM in experiment [1].

For `CCN(C(=O)c1cc(F)ccc1Oc1nncnc1N1CCC2(C1)CN([C@H](CCCN(C)C[C@@H](C)C(=O)NC)C(C)C)C2)C(C)C` [Compound 195, N-ethyl-5-fluoro-N-isopropyl-2-((5-(2-((R)-2-methyl-6-(methyl((R)-2-methyl-3-(methylamino)-3-oxopropyl)amino)hexan-3-yl)-2,6-diazaspiro[3.4]octan-6-yl)-1,2,4-triazin-6-yl)oxy)benzamide fumarate], the IC50 with OCI-AML3 cells is 58 nM; with MOLM14 cells it was 70 nM; with MEIS1 mRNA it was 56 nM; in the experiment with KO-52 cells, more than 15000 nM; in experiment [1], approximately 0.4 nM.

As to `CCN(C(=O)c1cc(F)ccc1Oc1nncnc1N1CCC2(C1)CN([C@H](CCCN(C)C[C@H](C)C(=O)NC)C(C)C)C2)C(C)C` [Compound 197, N-ethyl-5-fluoro-N-isopropyl-2-((5-(2-((R)-2-methyl-6-(methyl((S)-2-methyl-3-(methylamino)-3-oxopropyl)amino)hexan-3-yl)-2,6-diazaspiro[3.4]octan-6-yl)-1,2,4-triazin-6-yl)oxy)benzamide fumarate], the concentration for half-maximal inhibition (IC50) in the experiment on OCI-AML3 cells was 36 nM; with MOLM14 cells, 45 nM; with MEIS1 mRNA it was 36 nM; in the experiment on KO-52 cells, more than 15000 nM; in experiment [1] it was 0.3 nM.

Consider `CCN(C(=O)c1cc(F)ccc1Oc1nncnc1N1CCC2(C1)CN([C@H](CCCN(C)C(CO)CO)C(C)C)C2)C(C)C` [Compound 256, (R)-2-((5(2-(6-((1,3-dihydroxypropan-2-yl)(methyl)amino)-2-methylhexan-3-yl)-2,6-diazaspiro[3.4]octan-6-yl)-1,2,4-triazin-6-yl)oxy)-N-ethyl-5-fluoro-N-isopropylbenzamide fumarate], for which the IC50 in the experiment on OCI-AML3 cells is 360 nM; in the experiment with MOLM14 cells, 84 nM; in the experiment with MEIS1 mRNA, 130 nM; in the experiment on KO-52 cells, more than 15000 nM; in experiment [1], 0.15 nM.

Turning to `CCN(C(=O)c1cc(F)ccc1Oc1nncnc1N1CCC2(C1)CN([C@H](CCCN(C)CCO)C(C)C)C2)C(C)C` [Compound 259, (R)-N-ethyl-5-fluoro-2-((5-(2-(6-((2-hydroxyethyl)(methyl)amino)-2-methylhexan-3-yl)-2,6-diazaspiro[3.4]octan-6-yl)-1,2,4-triazin-6-yl)oxy)-N-isopropylbenzamide fumarate], the concentration for half-maximal inhibition (IC50) in the experiment with OCI-AML3 cells is 250 nM; in the experiment with MOLM14 cells, 46 nM; with MEIS1 mRNA it was 65 nM; with KO-52 cells, more than 15000 nM; in experiment [1], 0.16 nM.
